Source: patent US8445481B2, “Scaffold-diversified pyrrolidinone derivatives and their use” (The University of Chicago, priority 2007, dated 2013)

Key:
hACC2 = target: T1, hACC2 (Homo sapiens, UniProt O00763); settings: reference ACC inhibitor; cited from earlier work
T1 construct: expressed in transfected cells; host or cells: Saccharomyces cerevisiae

caspase-3/7 = experiment: Time-dependence of caspase-3/7 activation; format: cell-based; settings: HL-60 cells, time after treatment
tumor cells = experiment: Sensitisation of tumor cells to 2-deoxyglucose; format: cell-based
Method: (§1) Since respiration and glycolysis are tightly coupled in eukaryotic cells, a combination of suppressors of respiration with inhibitors of glycolysis were tested for cytotoxic phenotype.

A549 cells [1] = experiment: Intracellular ATP level of A549 cells with or without antimycin A; format: cell-based; settings: presence versus absence of antimycin A (10 nM)
Method: (§2) A high-throughput assay was developed for identification of new inhibitors of glycolysis. The effect of the pyrrolidinone library on intracellular ATP level of A549 cells was tested in either the presence or absence of antimycin A (inhibitor of mitochondrial electron-transport chain). […] Initial hits were further verified by evaluating their effects on lactate production. Since lactate is a toxic end-product of glycolysis effluxed to the intercellular space, treatment of cells with glycolytic inhibitors should lead to decreased levels of lactate in cell culture medium.

A549 cells [2] = experiment: Cancer cell proliferation, A549; format: cell-based
Method: as §1

CHO-K1 cells = experiment: Cell proliferation, CHO-K1; format: cell-based
Method: as §1

glycolysis = experiment: Lactate production in cell culture medium; format: cell-based
Method: as §2

cells = experiment: Cell cycle arrest; format: cell-based
U-87MG glioma cells = experiment: Combination of respiration suppressor and glycolysis inhibitor, cytotoxicity; format: cell-based; settings: in combination with leucascandrolide A
Method: as §1

[3] = system: cellular glucose consumption; experiment: Cellular glucose consumption; format: cell-based

T1 sequence (O00763 whole entry): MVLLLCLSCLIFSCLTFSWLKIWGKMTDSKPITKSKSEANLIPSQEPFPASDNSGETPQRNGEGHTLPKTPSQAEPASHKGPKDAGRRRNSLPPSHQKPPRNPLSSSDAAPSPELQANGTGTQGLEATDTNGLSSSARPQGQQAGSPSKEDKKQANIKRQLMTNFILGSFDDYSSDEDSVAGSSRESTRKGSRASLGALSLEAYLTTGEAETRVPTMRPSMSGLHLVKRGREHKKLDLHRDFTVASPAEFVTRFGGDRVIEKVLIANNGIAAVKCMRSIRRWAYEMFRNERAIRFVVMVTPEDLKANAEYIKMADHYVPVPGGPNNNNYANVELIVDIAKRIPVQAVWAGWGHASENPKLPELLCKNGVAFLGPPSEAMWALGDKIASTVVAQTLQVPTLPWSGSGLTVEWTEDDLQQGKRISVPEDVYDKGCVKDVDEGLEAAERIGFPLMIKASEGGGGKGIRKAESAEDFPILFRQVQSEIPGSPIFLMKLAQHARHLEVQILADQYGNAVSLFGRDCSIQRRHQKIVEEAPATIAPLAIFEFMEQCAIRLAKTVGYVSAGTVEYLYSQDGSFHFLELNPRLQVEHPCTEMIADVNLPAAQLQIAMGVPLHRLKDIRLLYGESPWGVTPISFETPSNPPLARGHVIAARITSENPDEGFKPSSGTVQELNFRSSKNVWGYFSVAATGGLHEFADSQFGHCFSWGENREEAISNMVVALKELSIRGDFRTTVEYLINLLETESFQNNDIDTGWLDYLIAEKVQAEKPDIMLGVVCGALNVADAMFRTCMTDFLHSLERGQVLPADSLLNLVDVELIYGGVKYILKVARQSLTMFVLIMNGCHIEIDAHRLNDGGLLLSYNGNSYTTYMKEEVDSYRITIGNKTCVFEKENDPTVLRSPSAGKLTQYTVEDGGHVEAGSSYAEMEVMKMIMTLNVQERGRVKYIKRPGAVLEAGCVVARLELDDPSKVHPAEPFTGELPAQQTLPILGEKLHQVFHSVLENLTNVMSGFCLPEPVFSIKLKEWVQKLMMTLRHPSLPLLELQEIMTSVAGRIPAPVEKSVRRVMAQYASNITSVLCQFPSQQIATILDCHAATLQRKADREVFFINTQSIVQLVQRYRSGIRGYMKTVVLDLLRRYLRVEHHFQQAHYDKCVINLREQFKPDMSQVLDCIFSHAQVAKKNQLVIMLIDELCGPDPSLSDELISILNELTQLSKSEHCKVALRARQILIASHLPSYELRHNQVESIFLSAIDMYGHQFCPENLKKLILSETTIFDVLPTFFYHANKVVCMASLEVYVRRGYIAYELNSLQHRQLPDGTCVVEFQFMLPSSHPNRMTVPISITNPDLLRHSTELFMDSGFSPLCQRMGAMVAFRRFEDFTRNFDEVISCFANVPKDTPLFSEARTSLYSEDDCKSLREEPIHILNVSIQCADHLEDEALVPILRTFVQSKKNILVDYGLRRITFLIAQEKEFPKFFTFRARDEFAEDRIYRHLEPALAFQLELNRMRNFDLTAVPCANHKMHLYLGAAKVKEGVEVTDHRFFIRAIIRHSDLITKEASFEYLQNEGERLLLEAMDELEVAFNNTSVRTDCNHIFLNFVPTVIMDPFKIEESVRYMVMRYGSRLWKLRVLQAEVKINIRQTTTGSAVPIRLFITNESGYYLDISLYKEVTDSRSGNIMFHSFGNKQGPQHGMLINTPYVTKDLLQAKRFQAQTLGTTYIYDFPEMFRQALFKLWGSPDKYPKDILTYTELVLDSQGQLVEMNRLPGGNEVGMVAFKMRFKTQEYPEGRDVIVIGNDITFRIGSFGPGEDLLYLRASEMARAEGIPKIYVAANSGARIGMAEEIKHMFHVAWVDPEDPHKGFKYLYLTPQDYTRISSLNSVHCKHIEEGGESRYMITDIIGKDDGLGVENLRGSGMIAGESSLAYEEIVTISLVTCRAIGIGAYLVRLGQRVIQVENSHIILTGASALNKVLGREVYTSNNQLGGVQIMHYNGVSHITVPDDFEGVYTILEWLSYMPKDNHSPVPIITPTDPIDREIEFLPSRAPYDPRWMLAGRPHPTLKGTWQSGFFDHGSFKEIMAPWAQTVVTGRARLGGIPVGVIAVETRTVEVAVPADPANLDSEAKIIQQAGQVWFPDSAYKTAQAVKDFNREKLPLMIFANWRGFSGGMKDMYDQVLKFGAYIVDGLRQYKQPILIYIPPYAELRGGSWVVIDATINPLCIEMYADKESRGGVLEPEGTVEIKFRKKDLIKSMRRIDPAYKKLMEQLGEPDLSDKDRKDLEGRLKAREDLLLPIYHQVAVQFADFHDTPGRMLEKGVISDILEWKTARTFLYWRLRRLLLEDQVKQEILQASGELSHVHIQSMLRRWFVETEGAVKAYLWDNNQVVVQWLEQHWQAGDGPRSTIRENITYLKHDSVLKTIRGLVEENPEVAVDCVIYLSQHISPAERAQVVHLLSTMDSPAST

Row | Compound | suppression of ATP production (A549 cells [1]) | effect on cancer cell proliferation (A549 cells [2]) | effect on cell proliferation (CHO-K1 cells) | lactate production (glycolysis) | cell cycle arrest (cells) | further results
1 | CC(C#Cc1cnc(Oc2ccc(Oc3ccccc3)cc2)s1)N(O)C(N)=O (stereo not shown) [Example A-80040] | – | – | – | – | – | ACC2 specificity (hACC2): certain level of ACC2 specificity
2 | CN[C@@H]1C[C@H]2O[C@@](C)([C@@H]1OC)n1c3ccccc3c3c4c(c5c6ccccc6n2c5c31)C(=O)NC4 [staurosporine] | – | – | – | – | – | caspase-3/7 activation over time (caspase-3/7): increased activity between 3 and 6 hours after treatment, after which activity decreased
3 | rhodamine 123 | – | – | – | – | – | sensitisation of tumor cells to 2-deoxyglucose (tumor cells): hypersensitized tumor cells to treatment with 2-deoxyglucose
4 | COC(=O)[C@@]12CCCCC=C1N(CCC1=CCCCC1)C(=O)[C@H]2CC(=O)NCc1ccc(OC)c(OC)c1 [Example P8A7] | suppressed ATP production more efficiently in the presence of antimycin A | cytostatic effect | cytostatic effect | inhibited lactate production | arrested cells in G1 phase | cell death on combined treatment (U-87MG glioma cells): severe cell death
5 | COC(=O)[C@@]12CCCCC/C=C\1N(Cc1cccc3ccccc13)C(=O)[C@H]2CC(=O)N1CCN(C(=O)c2ccco2)CC1 [Example P9E11] | suppressed ATP production more efficiently in the presence of antimycin A | cytostatic effect | cytostatic effect | inhibited lactate production | arrested cells in G1 phase | cellular glucose consumption [3]: rapidly inhibited cellular glucose consumption; activity profile compared with cytochalasin B ([3]; cytochalasin B is an established inhibitor of glucose transport): essentially identical activity profile to cytochalasin B
